Test results as given in patent US10125144B2, “Rho kinase inhibitors” (Kadmon Corporation, LLC, priority 2013, dated 2018).
Residue numbers refer to the chain shown, from its start. Where “and” joins values, the source holds several entries; their conditions need not be identical. Identical values can stand only once. Entries after “also recorded” stand apart in the source; their conditions may differ. Like-named read-outs stand apart in the source and are kept apart here. Each block holds one molecule with its values, some of them ahead of it.

How the values were obtained:
CD4+ human T cells = assay: cytokine secretion by CD4+ human T cells stimulated with anti-CD3/CD28; assay type: cell-based
Text: Activation of resting T cells, resulting in cytokine secretion and proliferation, involves two distinct signals from antigen-presenting cells (APCs), mimicked by co-stimulation of the T cell receptor (TCR)/CD3 complex and the CD28 receptor. […] Under the same conditions, the inhibition of IFN-γ and IL-2 was not observed (FIG. 2).

[1] = test system: experimental autoimmune encephalomyelitis (EAE); assay: experimental autoimmune encephalomyelitis (EAE) in mice; assay type: in vivo; conditions: C57BL/6 mice, MOG35-55 in CFA, 150 mg/kg QD or BID
ROCK1 = ROCK1 (Homo sapiens (Human), UniProt Q13464); assay: Invitrogen Z'-LYTE kinase assay, ROCK1 inhibition; assay type: biochemical; conditions: 5 uM ATP
Text: (§1) Dose response curves for Rho-kinase inhibition were derived from a Invitrogen Z′-LYTE™ Kinase Assay Kit (Invitrogen catalog number PV3793). Purified active ROCK1 and ROCK2 were obtained from Invitrogen (catalog numbers ROCK1, PV3691 and ROCK2, PV3759). The kit components include a coumarin and fluorescein labeled peptide based on myosin light chain 2 ([sequence]), a proprietary protease containing development reagent and a proprietary Stop buffer used to terminate the development reaction. The inhibitory activities of compounds are measured according to the manufactures protocol. Briefly, decreasing concentrations of test compounds or the known ROCK inhibitor Y-27963, are added, from 10 uM to 2.56×10^−5 uM to reaction buffer containing 50 mM HEPES pH 7.5, 10 mM MgCl2, 5 mM EGTA, and 0.05% Brij-35 and of ROCK1 at 0.18 ug/mL or ROCK2 at 0.8 ug/mL in assay dilution buffer. This mixture is overlayed into a white 96-well half area plate and the reaction is initiated with the addition of 5 uM ATP for ROCK1 or 12 uM ATP for ROCK2. The assay proceeds at room temperature for 1 hour followed by the addition of development reagent, and further incubation for 1 hour at room temperature. STOP reagent is then added and the reaction and immediately the coumarin and fluorescein emission signals are read on a Tecan Infinite M1000 fluorescence plate reader (excitation: 400 nm; emission 445 and 520 nm, respectively). By comparing the emission ratios of the test samples against control samples, percent phosphorylation values are calculated and the concentration of inhibitor that produces ½ inhibition of kinase activity (IC50) is determined using Prism.

ROCK2 = ROCK2 (Homo sapiens (Human), UniProt O75116); assay: Invitrogen Z'-LYTE kinase assay, ROCK2 inhibition; assay type: biochemical; conditions: ROCK2 0.8 ug/mL, 12 uM ATP
Text: as §1

human VEGFR2 [2] = target: T1, human VEGFR2 (Homo sapiens (Human), UniProt P35968); assay: Biacore analysis of binding to human VEGFR2; conditions: human antigen
murine VEGFR2 [3] = target: T2, murine VEGFR2 (Mus musculus (Mouse), UniProt P35918); assay: Biacore analysis of binding to murine VEGFR2; conditions: murine antigen
[4] = test system: phosphorylation of KDR and p44/42 in HUVEC; assay: VEGFR2-mediated signal transduction in HUVEC; assay type: cell-based, human
[5] = target: binding of murine VEGF with murine VEGFR2 (Mus musculus (Mouse), UniProt P35918); assay: ELISA ligand blocking, murine VEGF / murine VEGFR2
[6] = target: binding of human VEGF with human VEGFR2 (Homo sapiens (Human), UniProt P35968); assay: ELISA ligand blocking, human VEGF / human VEGFR2
rat VEGFR2 = rat VEGFR2 (Rattus norvegicus (Rat), UniProt O08775); assay: Biacore analysis of binding to rat VEGFR2; conditions: rat antigen
Procedure: The binding constants of Mab 147 and Mab 149 as well as the parent Mab 160 for human, murine, and rat VEGFR2 were determined by Biacore analysis (Table 4).

[7] = target: VEGFR2 on MS1 murine endothelial cells (Mus musculus (Mouse), UniProt P35918); assay: binding to VEGFR2 on MS1 murine endothelial cells; assay type: cell-based
KDR-PAE cells [8] = assay: VEGF-induced migration of KDR-PAE cells; assay type: cell-based, porcine; conditions: VEGF gradient
Procedure: Migration of KDR-PAE cells was induced with a VEGF gradient (50 ng/ml VEGF (up), 100 ng/ml VEGF (low)).

[9] = test system: phosphorylation of KDR and p44/42 in KDR-PAE cells; assay: VEGFR2-mediated signal transduction in KDR-PAE cells; assay type: cell-based, porcine
human VEGFR2 [10] = target: T1, human VEGFR2; assay: ELISA receptor binding, hVEGFR2
KDR-PAE cells [11] = assay: proliferation of KDR-PAE cells; assay type: cell-based, porcine
[12] = target: human VEGFR2 on HUVEC and KDR-PAE cells (Homo sapiens (Human), UniProt P35968); assay: binding to hVEGFR2 on HUVEC and KDR-PAE cells; assay type: cell-based
Text: Binding of Mab 147 to hVEGFR2 and mVEGFR2 expressed on cell membranes was also confirmed. […] Mab 147 also bound to mVEGFR expressed by MS1 murine endothelial cells (FIG. 8B).

murine VEGFR2 [13] = target: T2, murine VEGFR2; assay: ELISA receptor binding, mVEGFR2

T1 sequence (P35968 20-1356): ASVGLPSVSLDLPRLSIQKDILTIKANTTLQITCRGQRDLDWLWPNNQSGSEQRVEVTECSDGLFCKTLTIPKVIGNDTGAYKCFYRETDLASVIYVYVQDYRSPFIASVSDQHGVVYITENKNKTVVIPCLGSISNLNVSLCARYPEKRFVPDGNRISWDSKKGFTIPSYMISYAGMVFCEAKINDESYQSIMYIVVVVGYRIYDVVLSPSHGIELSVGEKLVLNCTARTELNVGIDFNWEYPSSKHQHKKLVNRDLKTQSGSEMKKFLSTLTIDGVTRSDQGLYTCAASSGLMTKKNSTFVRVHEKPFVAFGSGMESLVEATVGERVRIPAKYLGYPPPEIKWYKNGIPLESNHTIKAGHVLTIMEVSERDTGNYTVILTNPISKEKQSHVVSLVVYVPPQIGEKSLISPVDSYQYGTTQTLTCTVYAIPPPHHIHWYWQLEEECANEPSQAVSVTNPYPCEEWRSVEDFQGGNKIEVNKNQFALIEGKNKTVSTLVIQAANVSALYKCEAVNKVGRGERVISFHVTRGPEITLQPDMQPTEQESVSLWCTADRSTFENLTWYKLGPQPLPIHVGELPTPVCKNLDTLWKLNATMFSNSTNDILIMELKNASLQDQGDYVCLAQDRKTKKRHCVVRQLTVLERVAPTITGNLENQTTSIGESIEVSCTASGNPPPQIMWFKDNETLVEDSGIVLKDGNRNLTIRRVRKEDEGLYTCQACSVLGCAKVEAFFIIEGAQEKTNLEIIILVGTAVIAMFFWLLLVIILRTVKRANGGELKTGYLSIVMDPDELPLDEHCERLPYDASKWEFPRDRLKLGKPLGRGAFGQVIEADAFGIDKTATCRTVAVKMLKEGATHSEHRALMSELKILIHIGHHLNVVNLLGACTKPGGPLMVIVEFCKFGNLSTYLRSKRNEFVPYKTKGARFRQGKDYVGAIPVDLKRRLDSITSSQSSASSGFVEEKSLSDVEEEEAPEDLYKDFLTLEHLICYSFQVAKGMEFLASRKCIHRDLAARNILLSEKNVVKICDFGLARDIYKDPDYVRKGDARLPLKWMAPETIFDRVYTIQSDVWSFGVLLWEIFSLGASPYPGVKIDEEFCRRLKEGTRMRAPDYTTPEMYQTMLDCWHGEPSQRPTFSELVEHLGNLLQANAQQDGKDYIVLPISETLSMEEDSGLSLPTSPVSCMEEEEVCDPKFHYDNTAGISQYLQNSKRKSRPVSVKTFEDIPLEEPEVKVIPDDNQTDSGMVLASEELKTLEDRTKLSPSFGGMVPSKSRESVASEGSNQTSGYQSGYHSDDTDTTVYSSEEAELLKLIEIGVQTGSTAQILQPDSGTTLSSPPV
Chain of ROCK1 (Q13464 whole entry): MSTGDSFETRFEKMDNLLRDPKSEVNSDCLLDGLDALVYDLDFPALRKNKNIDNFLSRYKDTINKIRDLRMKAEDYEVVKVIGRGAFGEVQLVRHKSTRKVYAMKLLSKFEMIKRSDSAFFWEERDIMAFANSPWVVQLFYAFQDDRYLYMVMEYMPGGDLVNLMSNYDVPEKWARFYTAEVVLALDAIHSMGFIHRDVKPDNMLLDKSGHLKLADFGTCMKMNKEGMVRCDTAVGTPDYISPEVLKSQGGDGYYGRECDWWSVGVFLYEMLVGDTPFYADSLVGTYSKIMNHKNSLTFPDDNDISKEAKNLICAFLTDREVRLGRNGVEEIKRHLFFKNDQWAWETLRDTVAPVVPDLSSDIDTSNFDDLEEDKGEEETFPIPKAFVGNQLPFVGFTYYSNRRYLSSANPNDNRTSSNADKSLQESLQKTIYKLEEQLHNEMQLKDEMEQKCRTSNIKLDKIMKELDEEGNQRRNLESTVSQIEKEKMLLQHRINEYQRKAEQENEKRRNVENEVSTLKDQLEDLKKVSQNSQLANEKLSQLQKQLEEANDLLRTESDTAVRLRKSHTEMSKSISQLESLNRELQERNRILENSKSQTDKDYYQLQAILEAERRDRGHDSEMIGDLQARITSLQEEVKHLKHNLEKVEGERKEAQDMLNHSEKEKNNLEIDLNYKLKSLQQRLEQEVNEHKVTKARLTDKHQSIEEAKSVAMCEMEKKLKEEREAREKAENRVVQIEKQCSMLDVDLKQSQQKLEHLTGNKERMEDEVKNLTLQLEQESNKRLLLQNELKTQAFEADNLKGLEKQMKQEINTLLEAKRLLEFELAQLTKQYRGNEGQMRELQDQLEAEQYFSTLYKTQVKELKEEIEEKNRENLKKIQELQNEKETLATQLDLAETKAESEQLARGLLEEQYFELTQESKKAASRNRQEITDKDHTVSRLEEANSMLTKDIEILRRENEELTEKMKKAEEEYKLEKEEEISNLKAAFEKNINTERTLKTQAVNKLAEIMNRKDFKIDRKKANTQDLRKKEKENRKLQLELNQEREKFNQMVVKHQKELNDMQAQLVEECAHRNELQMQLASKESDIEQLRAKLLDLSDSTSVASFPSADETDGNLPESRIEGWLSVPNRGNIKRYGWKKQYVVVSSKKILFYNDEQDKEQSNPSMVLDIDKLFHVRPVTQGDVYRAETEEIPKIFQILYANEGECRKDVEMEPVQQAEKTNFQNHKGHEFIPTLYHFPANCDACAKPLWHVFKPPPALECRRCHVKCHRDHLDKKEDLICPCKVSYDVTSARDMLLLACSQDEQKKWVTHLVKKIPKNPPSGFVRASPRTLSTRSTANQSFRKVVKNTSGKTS
Chain of rat VEGFR2 (O08775 20-1343): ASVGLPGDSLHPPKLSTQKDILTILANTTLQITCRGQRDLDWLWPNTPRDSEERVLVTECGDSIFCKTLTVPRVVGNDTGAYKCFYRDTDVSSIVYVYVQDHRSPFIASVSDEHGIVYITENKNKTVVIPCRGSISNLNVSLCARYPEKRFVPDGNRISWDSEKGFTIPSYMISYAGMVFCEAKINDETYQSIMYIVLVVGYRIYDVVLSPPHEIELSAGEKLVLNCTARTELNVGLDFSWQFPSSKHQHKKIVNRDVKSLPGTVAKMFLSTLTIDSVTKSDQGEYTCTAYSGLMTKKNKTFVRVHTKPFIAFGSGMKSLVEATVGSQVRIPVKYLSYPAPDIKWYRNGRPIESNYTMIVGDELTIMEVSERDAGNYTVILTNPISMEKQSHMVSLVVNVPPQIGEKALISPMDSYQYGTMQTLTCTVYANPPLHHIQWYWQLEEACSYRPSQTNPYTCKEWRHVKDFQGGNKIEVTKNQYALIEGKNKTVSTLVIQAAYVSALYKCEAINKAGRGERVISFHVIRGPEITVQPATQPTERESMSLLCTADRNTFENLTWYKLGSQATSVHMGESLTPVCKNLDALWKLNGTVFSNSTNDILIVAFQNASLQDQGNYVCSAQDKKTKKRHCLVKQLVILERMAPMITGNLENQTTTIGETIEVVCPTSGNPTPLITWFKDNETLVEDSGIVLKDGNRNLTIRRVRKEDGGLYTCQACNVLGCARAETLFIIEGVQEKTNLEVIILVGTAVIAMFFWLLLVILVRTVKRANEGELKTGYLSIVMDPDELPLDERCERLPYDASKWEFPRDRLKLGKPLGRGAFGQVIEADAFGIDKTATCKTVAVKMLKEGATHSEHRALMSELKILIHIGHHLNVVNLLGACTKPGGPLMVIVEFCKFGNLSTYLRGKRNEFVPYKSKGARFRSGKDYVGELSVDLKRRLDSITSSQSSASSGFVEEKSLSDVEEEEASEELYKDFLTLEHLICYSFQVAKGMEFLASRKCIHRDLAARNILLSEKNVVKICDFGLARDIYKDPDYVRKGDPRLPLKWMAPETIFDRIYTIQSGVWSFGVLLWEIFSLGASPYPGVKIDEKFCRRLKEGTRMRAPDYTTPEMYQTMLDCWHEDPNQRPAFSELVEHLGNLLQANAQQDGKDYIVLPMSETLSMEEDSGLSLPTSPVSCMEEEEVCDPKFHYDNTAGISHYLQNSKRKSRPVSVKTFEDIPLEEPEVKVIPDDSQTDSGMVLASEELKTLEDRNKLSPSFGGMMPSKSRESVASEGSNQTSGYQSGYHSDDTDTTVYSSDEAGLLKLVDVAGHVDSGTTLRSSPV
Chain of binding of human VEGF with human VEGFR2 (P35968 20-764): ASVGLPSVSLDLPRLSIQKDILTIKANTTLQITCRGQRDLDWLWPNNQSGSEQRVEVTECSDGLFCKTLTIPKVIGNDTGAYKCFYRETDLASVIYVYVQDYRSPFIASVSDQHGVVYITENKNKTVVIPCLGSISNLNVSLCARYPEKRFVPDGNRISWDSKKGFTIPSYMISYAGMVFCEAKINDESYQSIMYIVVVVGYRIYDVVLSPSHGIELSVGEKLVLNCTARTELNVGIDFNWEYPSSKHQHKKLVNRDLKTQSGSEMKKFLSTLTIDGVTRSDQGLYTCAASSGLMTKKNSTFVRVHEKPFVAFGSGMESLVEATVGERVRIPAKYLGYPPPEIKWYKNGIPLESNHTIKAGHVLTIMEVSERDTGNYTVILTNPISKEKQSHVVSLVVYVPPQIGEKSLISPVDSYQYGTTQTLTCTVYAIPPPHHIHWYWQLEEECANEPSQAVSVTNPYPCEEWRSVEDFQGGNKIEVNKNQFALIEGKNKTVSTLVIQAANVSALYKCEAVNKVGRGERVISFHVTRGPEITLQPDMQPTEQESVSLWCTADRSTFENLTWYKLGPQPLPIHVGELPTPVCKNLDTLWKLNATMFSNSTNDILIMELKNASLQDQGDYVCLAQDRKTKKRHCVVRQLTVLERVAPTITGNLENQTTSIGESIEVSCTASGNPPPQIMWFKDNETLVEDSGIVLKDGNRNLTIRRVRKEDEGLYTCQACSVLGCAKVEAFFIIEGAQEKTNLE
Chain of human VEGFR2 on HUVEC and KDR-PAE cells (P35968 20-1356): as the sequence (P35968 20-1356) above

Molecule: COc1ccc2c(c1)CN(c1nccc(Nc3ccc4[nH]ncc4c3)n1)C2 [Example 1, N-(2-(5-Methoxyisoindolin-2-yl)pyrimidin-4-yl)-1H-indazol-5-amine]
IFN-γ secretion (CD4+ human T cells): not observed | IL-2 secretion (CD4+ human T cells): not observed | IL-17 secretion (CD4+ human T cells): dose-dependent; also recorded: significantly inhibited | IL-21 secretion (CD4+ human T cells): inhibits; also recorded: significantly inhibited | EAE paralysis / mean clinical score [1]: reduces paralysis | EAE paralysis / mean clinical score ([1]; listed as compound 1): substantial improvement

IC50 (ROCK1): > 10 µM
Molecule: c1ccc2c(c1)CN(c1nccc(Nc3ccc4[nH]ncc4c3)n1)C2 [Example 2, N-(2-(Isoindolin-2-yl)pyrimidin-4-yl)-1H-indazol-5-amine]

IC50 (ROCK1): > 10 µM
Molecule: COc1ccc2c(c1)CN(c1ccnc(Nc3ccc4[nH]ncc4c3)n1)C2 [Example 8, N-(4-(5-Methoxyisoindolin-2-yl)pyrimidin-2-yl)-1H-indazol-5-amine]

IC50 (ROCK1): > 10 µM
Molecule: Clc1ccc2c(c1)CN(c1nccc(Nc3ccc4[nH]ncc4c3)n1)C2 [Example 10, N-(2-(5-Chloroisoindolin-2-yl)pyrimidin-4-yl)-1H-indazol-5-amine]

IC50 (ROCK1): > 10 µM
Molecule: COc1ccc2c(c1)CCN(c1nccc(Nc3ccc4[nH]ncc4c3)n1)C2 [Example 11, N-(2-(6-Methoxy-3,4-dihydroisoquinolin-2(1H)-yl)pyrimidin-4-yl)-1H-indazol-5-amine]

IC50 (ROCK1): > 10 µM
Molecule: c1cc(Nc2ccc3[nH]ncc3c2)nc(N2CCc3sccc3C2)n1 [Example 12, N-(2-(6,7-Dihydrothieno[3,2-c]pyridin-5(4H)-yl)pyrimidin-4-yl)-1H-indazol-5-amine]

IC50 (ROCK1): > 10 µM
Molecule: COc1ccc2c(c1)CN(c1cc(Nc3ccc4[nH]ncc4c3)ncn1)C2 [Example 13, N-(6-(5-Methoxyisoindolin-2-yl)pyrimidin-4-yl)-1H-indazol-5-amine]

IC50 (ROCK2): 0.13 to 0.18 µM | IC50 (ROCK1): > 10 µM
Molecule: COc1ccc2c(c1)CN(c1cc(Nc3ccc4[nH]ncc4c3)nc(C)n1)C2 [Example 14, N-(6-(5-Methoxyisoindolin-2-yl)-2-methylpyrimidin-4-yl)-1H-indazol-5-amine]

IC50 (ROCK1): > 10 µM
Molecule: c1cc2c(cn1)CN(c1nccc(Nc3ccc4[nH]ncc4c3)n1)C2 [Example 15, N-(2-(1H-Pyrrolo[3,4-c]pyridin-2(3H)-yl)pyrimidin-4-yl)-1H-indazol-5-amine]

IC50 (ROCK2): > 0.01 µM
Molecule: COc1ccc2c(c1)CN(c1nc(C)c(C)c(Nc3ccc4[nH]ncc4c3)n1)C2 [Example 16, N-(2-(5-Methoxyisoindolin-2-yl)-5,6-dimethylpyrimidin-4-yl)-1H-indazol-5-amine]

IC50 (ROCK1): > 10 µM
Molecule: c1ccc2c(c1)CN(c1nc3c(c(Nc4ccc5[nH]ncc5c4)n1)COC3)C2 [Example 17, N-(1H-Indazol-5-yl)-2-(isoindolin-2-yl)-5,7-dihydrofuro[3,4-d]pyrimidin-4-amine]

IC50 (ROCK2): > 10 µM | IC50 (ROCK1): > 10 µM
Molecule: COc1ccc2c(c1)CN(c1nccc(Nc3ccncc3)n1)C2 [Example 19, 2-(5-Methoxyisoindolin-2-yl)-N-(pyridin-4-yl)pyrimidin-4-amine]

IC50 (ROCK1): > 10 µM
Molecule: COc1ccc2c(c1)CN(c1nccc(Nc3ccc(-c4ccncc4)cc3)n1)C2 [Example 20, 2-(5-Methoxyisoindolin-2-yl)-N-(4-(pyridin-4-yl)phenyl)pyrimidin-4-amine]

IC50 (ROCK2): 0.185 µM | IC50 (ROCK1): > 10 µM
Molecule: COc1ccc2c(c1)CN(c1nc3c(c(Nc4ccc5[nH]ncc5c4)n1)COCC3)C2 [Example 21, N-(1H-Indazol-5-yl)-2-(5-methoxyisoindolin-2-yl)-7,8-dihydro-5H-pyrano[4,3-d]pyrimidin-4-amine]

IC50 (ROCK2): 24.3 µM and 24 µM
Molecule: COc1ccc2c(c1)CN(c1nc3c(c(Nc4ccc5[nH]ncc5c4)n1)CNC3)C2 [Example 22, N-(1H-Indazol-5-yl)-2-(5-methoxyisoindolin-2-yl)-6,7-dihydro-5H-pyrrolo[3,4-d]pyrimidin-4-amine]

IC50 (ROCK1): 2.5 µM
Molecule: COc1ccc2c(c1)CN(c1nc3c(c(Nc4ccc5[nH]ncc5c4)n1)CCNC3)C2 [Example 24, N-(1H-Indazol-5-yl)-2-(5-methoxyisoindolin-2-yl)-5,6,7,8-tetrahydropyrido[3,4-d]pyrimidin-4-amine]

IC50 (ROCK2): 0.13 µM | IC50 (ROCK1): > 10 µM
Molecule: COc1ccc2c(c1)CN(c1nc3c(c(Nc4ccc5[nH]ncc5c4)n1)CCN(C)C3)C2 [Example 25, N-(1H-Indazol-5-yl)-2-(5-methoxyisoindolin-2-yl)-7-methyl-5,6,7,8-tetrahydropyrido[3,4-d]pyrimidin-4-amine]

IC50 (ROCK2): 0.123 µM | IC50 (ROCK1): > 10 µM
Molecule: N#Cc1ccc2c(c1)CN(c1nccc(Nc3ccc4[nH]ncc4c3)n1)C2 [Example 26, 2-(4-((1H-Indazol-5-yl)amino)pyrimidin-2-yl)isoindoline-5-carbonitrile]

IC50 (ROCK2): 0.1 µM | IC50 (ROCK1): 6.73 µM
Molecule: COCc1ccc2c(c1)CN(c1nccc(Nc3ccc4[nH]ncc4c3)n1)C2 [Example 27, N-(2-(5-(Methoxymethyl)isoindolin-2-yl)pyrimidin-4-yl)-1H-indazol-5-amine]

IC50 (ROCK2): 0.88 µM
Molecule: Fc1cccc2c1CN(c1nccc(Nc3ccc4[nH]ncc4c3)n1)C2 [Example 29, N-(2-(4-Fluoroisoindolin-2-yl)pyrimidin-4-yl)-1H-indazol-5-amine]

IC50 (ROCK1): > 10 µM
Molecule: Fc1ccc2c(c1)CN(c1nc3c(c(Nc4ccc5[nH]ncc5c4)n1)COC3)C2 [Example 30, 2-(5-Fluoroisoindolin-2-yl)-N-(1H-indazol-5-yl)-5,7-dihydrofuro[3,4-d]pyrimidin-4-amine]

IC50 (ROCK2): 0.607 µM | IC50 (ROCK1): > 10 µM
Molecule: COc1nc(N2Cc3ccccc3C2)nc(Nc2ccc3[nH]ncc3c2)c1OC [Example 32, N-(2-(Isoindolin-2-yl)-5,6-dimethoxypyrimidin-4-yl)-1H-indazol-5-amine]

ka (human VEGFR2 [2]): 1.13E+05 | kd (human VEGFR2 [2]): 2.82E−04 | ka (murine VEGFR2 [3]): 4.38E+04 | kd (murine VEGFR2 [3]): 1.28E−03 | blocking of binding of murine VEGF with murine VEGFR2 [5]: blocks ligand binding | blocking of binding of human VEGF with human VEGFR2 [6]: blocks ligand binding | ka (rat VEGFR2): 6.45E+04 | kd (rat VEGFR2): 8.99E−04 | binding to VEGFR2 on MS1 murine endothelial cells [7]: binds; also recorded: bound | binding to hVEGFR2 expressed on cell membranes [12]: confirmed
B1: Mab 147: affinity matured anti-VEGFR2 antibody derived from Mab 138; VH SEQ ID NO:200, VL SEQ ID NO:204 (antibody, V domains shown)
VH: EVQLLESGGGLVQPGGSLRLSCAASGFTFSWYVMGWVRQAPGKGLEWVSSIYPQGGATSYADSVKGRFTISRDNSKNTLYLQMNSLRAEDTAVYYCARGNYFDYWGQGTLVTVSS
VL: DIQMTQSPGTLSLSPGEGATLSCRASQSVSSNYFGWYQQKPGQAPRLLIYGASSRATGIPDRFSGSGSGTDFTLTISRLEPEDSAVYYCQQFDSLPLTFGGGTKVEIKR
modifications: Mutation of library member
phosphorylation of KDR and p44/42 [4]: inhibit | phosphorylation of KDR and p44/42 ([4]; listed as Mab-147): reduced phosphorylation | VEGF-induced migration of KDR-PAE cells (KDR-PAE cells [8]): inhibiting | phosphorylation of KDR and p44/42 [9]: inhibit | phosphorylation of KDR and p44/42 ([9]; listed as Mab-147): reduced phosphorylation | binding to human VEGFR2 (human VEGFR2 [10]): binds to both hVEGFR2 and mVEGFR2 with similar affinity | proliferation of KDR-PAE cells (KDR-PAE cells [11]): inhibit | binding to murine VEGFR2 (murine VEGFR2 [13]): binds to both hVEGFR2 and mVEGFR2 with similar affinity

ka (human VEGFR2 [2]): 8.62E+04 | kd (human VEGFR2 [2]): 6.59E−04 | ka (murine VEGFR2 [3]): 2.29E+04 | kd (murine VEGFR2 [3]): 1.81E−03 | ka (rat VEGFR2): 3.32E+04 | kd (rat VEGFR2): 1.43E−03
B2: Mab 149: affinity matured anti-VEGFR2 antibody derived from Mab 138; VH SEQ ID NO:216, VL SEQ ID NO:220 (antibody, V domains shown)
VH: B1 VH with Q54S, S59N, F102L
VL: B1 VL with L95S, T98S
modifications: Mutated library sequence
